In PubChem BioAssay AID1794817:

Molecular target: Synaptic vesicular amine transporter (Homo sapiens) (UniProt Q05940)
Test: SLC18A2 vesicular uptake inhibitors, dose response (AID 1794817)
Conditions: HEK-293 SLC18A2 OE, FFN206 uptake fluorescence

Sequence of Synaptic vesicular amine transporter (Homo sapiens) (Q05940 whole entry, looked up): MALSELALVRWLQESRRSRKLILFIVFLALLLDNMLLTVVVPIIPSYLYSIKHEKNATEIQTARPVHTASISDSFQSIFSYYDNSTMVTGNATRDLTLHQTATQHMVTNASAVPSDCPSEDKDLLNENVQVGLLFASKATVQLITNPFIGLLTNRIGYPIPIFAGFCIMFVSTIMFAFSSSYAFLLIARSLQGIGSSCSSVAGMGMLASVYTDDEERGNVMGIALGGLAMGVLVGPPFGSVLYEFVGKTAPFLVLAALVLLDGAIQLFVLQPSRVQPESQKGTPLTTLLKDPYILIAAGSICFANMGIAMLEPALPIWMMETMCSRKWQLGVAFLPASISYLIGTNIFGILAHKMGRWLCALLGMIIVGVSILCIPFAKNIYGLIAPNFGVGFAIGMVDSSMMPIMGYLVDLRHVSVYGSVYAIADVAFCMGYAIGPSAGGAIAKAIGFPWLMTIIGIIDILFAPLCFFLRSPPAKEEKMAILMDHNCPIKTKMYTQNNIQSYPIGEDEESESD

Row | Compound | IC50 [nM]
1 | CNc1ccc2c(CCN)cc(=O)oc2c1 | 3560
2 | COc1cc2c(cc1OC)C1CC(=O)C(CC(C)C)CN1CC2 (configuration not stated) | 19.8
